Assay results as given in patent US4311700A, “Pyrimidobenzodiazepinones, their use and medicaments containing them” (priority 1979, dated 1982).

Tests used:
Shay rats = assay: Antiulcerogenic action (protective action on the stomach) in Shay rats, pylorus ligature plus acetylsalicylic acid; type: in vivo, rat; details: for TQ LD50/ED50 (therapeutic quotient): LD50 i.v. mice / ED50 p.o. rats; for ED50: Rattus norvegicus, po, p.o. 1 hour before pylorus ligature, dose reducing ulcer index by 50% vs control, read-out: Protective action on the stomach ED50 administered perorally to rats
Description: The effect of the compounds according to the invention on the formation, in rats, of gastric ulcers provoked by a pylorus ligature and 100 mg/kg of acetylsalicyclic acid, (administered orally) is shown in table II.
ED50 = the dose which reduces the ulcer index for the group treated
by 50% compared with the control group
The anti-ulcerogenic action is tested by a method using the so-caled Shay rats:
(§1) Ulcers are provoked in rats which have been starved for 24 hours (female rats, 180 to 200 g, 4 animals in a cage with a high grille) by means of a pylorus ligature (under anaesthesia with diethyl ether) and oral administration of 100 mg/10 ml/kg of acetylsalicyclic acid. The substances to be tested are administered orally (10 ml/kg) 1 hour before the pylorus ligature. The closure of the wound is effected by means of Michel's clips. The animals are killed 4 hours afterwards under ether anaesthesia by dislocating the atlas, and the stomach is cut out. The stomach is opened longitudinally and is fixed on a cork slab, the quantity of gastric juice secreted (volume) and the hydrochloric acid content having been determined beforehand; the number and size (= diameter) of ulcers present are determined by means of a stereomicroscope at a 10-fold magnification. The product of the degree of severity (in accordance with the following rating scale) and the number of the ulcers is used as an individual ulcer index.
ulcer diameter 0.1-1.4 mm
The reduction in the average ulcer index in each group treated compared with that of the control group (=100%) is used as a measure of the anti-ulcerogenic effect. The ED50 indicates the dose which reduces the average ulcer index by 50%.

[1] = Determination of toxicity, intravenous, mice; details: mouse, in vivo, i.v., female NMRI mice, 7 days observation, read-out: Toxicity LD50 administered intravenously to mice
Description: LD50 = the dose at which 50% of the animals die
The toxicity investigations are carried out on female NMRI mice (body weight 22 to 26 g). The animals (5 animals per dose) receive feed and water ad lib. Various doses of the substances are administered intravenously (duration of injection 1 minute). The observation period is 7 days. The LD50 (the dose at which 50% of the animals die) is determined by means of a linear regression.

stomach secretion = assay: Inhibition of stomach secretion (volume and hydrochloric acid) in rats; type: in vivo, rat; details: 4 hours after administration of the antiulcerogenic ED50
Description: *% inhibition = inhibition (in %) of stomach secretion 4 hours after
administration of the antiulcerogenic ED50
as §1

Row | Structure (SMILES) | TQ LD50/ED50 (therapeutic quotient) (Shay rats) | ED50 (Shay rats) [mg/kg] | LD50 at 168 h [1] [mg/kg] | % inhibition of stomach secretion in rats, hydrochloric acid (stomach secretion) [%] | % inhibition of stomach secretion in rats, volume (stomach secretion) [%] | anti-ulcerogenic action at high dose (Shay rats; even at 300 mg/kg, rats) | dose/action curve (dose dependence of the action) (Shay rats; rats, p.o.) | inhibitory effect (anti-ulcerogenic action) (Shay rats; 30 mg/kg, p.o., rats)
1 | CN1CCN(CC(=O)N2c3ccccc3NC(=O)c3cncnc32)CC1 [Compound 2, 11-[(4-Methyl-1-piperazinyl)acetyl]-5,6-dihydropyrimido[4,5-b][1,5]benzodiazepin-5-one] | 15 | 12 | 180 | 5 | 10 |  |  | 
2 | CC1(C)[C@@H](OC(=O)CCC(=O)O)CC[C@]2(C)[C@H]3C(=O)C=C4[C@@H]5C[C@@](C)(C(=O)O)CC[C@]5(C)CC[C@@]4(C)[C@]3(C)CC[C@@H]12 [Compound 1, Carbenoxolone, reference compound] | ~ 4.1 | ~70 | 290 | 4 | 7 | not possible to achieve any substantial increase in the anti-ulcerogenic action | the dose/action curve then flattens out very considerably | 
3 | CN1CCN(CC(=O)N2c3ccccc3N(C)C(=O)c3cnc(-c4ccccc4)nc32)CC1 [Compound 3, 6-Methyl-11-[(4-methyl-1-piperazinyl)acetyl]-2-phenyl-5,6-dihydropyrimido[4,5-b][1,5]benzodiazepin-5-one] | 10.5 | 9 | 95 |  | 7 |  |  | 
4 | CN1C(=O)c2cnc(-c3ccccc3)nc2N(C(=O)CN2CCCCC2)c2ccccc21 [Compound 4, 6-Methyl-2-phenyl-11-piperidinoacetyl-5,6-dihydropyrimido[4,5-b][1,5]benzodiazepin-5-one] | ~ 20 | ~8 | 160 | 22 | 32 |  |  | 
5 | CN(C)CCN(C)CC(=O)N1c2ccccc2N(C)C(=O)c2cnc(-c3ccccc3)nc21 [Compound 5, 11-[N-(2-dimethylaminoethyl)-N-methylamino]acetyl-6-methyl-2-phenyl-5,6-dihydropyrimido[4,5-b][1,5]benzodiazepin-5-one] |  | < 10 |  |  |  |  |  | up to 100%
